From patent US20040152745A1, “Dipeptidyl peptidase IV inhibitors and methods of making and using dipeptidyl peptidase IV inhibitors” (Guilford Pharmaceuticals, Inc., priority 1999, published 2004)

Test system: organotypic spinal motor neurons
Test: organotypic spinal motor neuron / THA neuroprotection assay
Type: cell-based, Sprague-Dawley rat
Conditions: exposure of neurons with THA alone
Protocol: Each experiment consists of two 6-well plates with 5 slices from 4 different animals per well. Media changes are performed every 3 to 4 days. Cultures are treated with THA [L(−)-threo-3-hydroxyaspartic acid; Tocris Cookson Inc., Ballwin, Mo.] at 200 μM+compound (10 μM) after one week in culture. The control is an untreated sample with 0.1% DMSO as vehicle. The THA control is a THA treated sample with 0.1% DSMO as vehicle. Two wells are used per condition. One media change with new THA and compounds is performed. The experiment is stopped 6 to 8 days following drug treatment (13-15 total days in vitro, DIV) as dictated by visual assessment of lesion, by fixation with 4% paraformaldehyde/0.1 M phosphate buffer for 30 minutes. Slices are permeabilized with 100% cold methanol for 10 minutes. Slices are transferred to staining wells. […]
Quantification of surviving neurons is performed on a Ziess Axiovert microscope. Neuronal survival is determined by observing an intact neuronal cell body with processes located ventrally of the central canal in each hemisphere. […] Each hemisphere is counted individually. The statistics can be performed with StatView software on a minimum of three different experiments per condition and significance should be determined as compared to THA control. The percent of protection can be determined from the average number of living neurons by the following equation: […]

N[C@H](C(=O)O)[C@H](O)C(=O)O [THA, L(−)-threo-3-hydroxyaspartic acid]
death of the neurons: 55-60%
